System: Na+/K+ ATPase
Assay: Rubidium based assay for detection of Na+/K+ ATPase activity
Set-up: species or system human
Settings: A2780 and HCT116 p53+/+ cell lines, 10 μM for 6 h, then RbCl (5.4 mM) 3 h, ICP-MS
Description: Cells were seeded in 6-well plates and incubated for 24 h at 37 °C in an atmosphere of 5% CO2. Cells were then incubated with drug for 6 h, and subsequently the medium was removed and cells were washed with PBS. Cells were then incubated with RbCl (5.4 mM) for 3 h, washed and counted. Rubidium content was determined by ICP-MS.
8.4 Real-time cell growth monitoring
Real-time Cell Analyzer (RTCA) (xCELLigence RTCA SP Instrument, ROCHE) was employed for growth monitoring of cells in the absence and the presence of tested compounds.
After the background of E-plates reading (100 µL medium), the cells were added (5x10^3 cells/well; 50 µL) and grown for 22-28 h. Tested compounds at varying concentrations were then added in 50 µL of media. The impedance was monitored for additional 80 h. An arbitrary unit CI (cell index) is a quantitative measure reflecting the status of the cells (number of attached cells and cell status such as morphology) in an electrode-containing well. Normalized CI at a given time point is given by dividing CI at the time point by CI at a reference time point.
8.5 Rubidium based assay for detection of Na +/K+ ATPase activity
The cells were seeded on 6-well plates (5× 10^5 cells/dish) and incubated overnight. The cells were treated with the investigated compounds for 6 h at 10 µM concentration. […] The cells were then harvested, washed trice with PBS, counted and pelleted. […]

In the case of C[C@@H]1O[C@@H](O[C@H]2C[C@@H](O)[C@]3(CO)[C@H]4[C@H](O)C[C@]5(C)[C@@H](C6=CC(=O)OC6)CC[C@]5(O)[C@@H]4CC[C@]3(O)C2)[C@H](O)[C@H](O)[C@H]1O [ouabain], the “inhibition of Rb+ uptake” value is reported as 39–57%.
